{
  "source": "patent US12214092B2",
  "about": "“Systems and methods for treating biological fluids” (Cerus Corporation, priority 2017, dated 2025)",
  "key": {"[1]": {"assay": "Amotosalen concentration post-UVA in FCV-spiked platelets, HPLC", "format": "physicochemical"}, "[2]": {"test_system": "vesicular stomatitis virus (VSV)", "format": "cell-based", "details": "for Log Inact. / Post-Txt Titer / Pre-Txt Titer: 30 μM, listed as amotosalen; for Log inactivation / Post-treatment titer / Pre-treatment titer: 150 μM"}, "E. coli": {"test_system": "E. coli", "assay": "Amotosalen and UV light (265-385 nm LEDs) treatment of E. coli in plasma, six-well plates, colony forming unit assay", "format": "cell-based", "details": "~3 J/cm^2, plasma", "source_text": "This system comprised single arrays facing (e.g., opposing) a platform positioned for the illumination of biological fluids placed on the platform (see e.g., FIG. 5). System controls provided for adjustment of the LEDs during treatment of the biological fluid samples, controlling both the timing and intensity of illumination by the LEDs to achieve a desired light UV light dose. Evaluation of photochemical conversion, photoproduct formation, pathogen inactivation, and plasma and/or platelet quality parameters are performed for each light source wavelength as described previously. In one study using the device, photochemical inactivation of various bacteria were tested for each of the above-referenced LEDs together with amotosalen. The bacteria included E. coli (Gram negative), S. epidermidis (Gram positive), and P. acnes (anaerobe). As there are known germicidal effects of ultraviolet light with wavelengths in the UVC and UVB range, the study was controlled to determine for each LED wavelength the total inactivation levels, as well as inactivation levels specifically resulting from the UV light (without added amotosalen) or the photochemical treatment process itself."}},
  "note": "Several values for one entry are separate records, joined by “and”; a condition that tells them apart may be missing. Equal entries are not always repeated. Where two headings read alike, the source gives them in different places.",
  "data": [
    {"smiles": "Cc1oc2c(C)c3oc(=O)cc(C)c3cc2c1COCCN", "note": "[S-59, 3-(2-aminoethoxymethyl)-2,5,9-trimethylfuro[3,2-g]chromen-7-one]", "values": [
      {"measurement": "S-59 post-UVA concentration", "setting": "[1]; 15 μM, 4 hr incubation, 340 nm ~3 J/cm^2", "value": 0.6, "unit": "µM"},
      {"measurement": "S-59 post-UVA concentration", "setting": "[1]; 15 μM, 8 hr incubation, 340 nm ~3 J/cm^2", "value": 0.6, "unit": "µM"},
      {"measurement": "S-59 post-UVA concentration", "setting": "[1]; 15 μM, 8 hr, 340 nm ~3 J/cm^2 Top Only", "value": "<1", "unit": "µM"},
      {"measurement": "S-59 post-UVA concentration", "setting": "[1]; 15 μM, 8 hr, 340 nm ~3 J/cm^2 Top/Bottom", "value": "<1", "unit": "µM"},
      {"measurement": "S-59 post-UVA concentration", "setting": "[1]; 15 μM, 24 hr incubation, 340 nm ~3 J/cm^2", "value": 0.6, "unit": "µM"},
      {"measurement": "S-59 post-UVA concentration", "setting": "[1]; 15 μM, 24 hr, 340 nm ~3 J/cm^2 Top Only", "value": "<1", "unit": "µM"},
      {"measurement": "S-59 post-UVA concentration", "setting": "[1]; 15 μM, 24 hr, 340 nm ~3 J/cm^2 Top/Bottom", "value": "<1", "unit": "µM"},
      {"measurement": "S-59 post-UVA concentration", "setting": "[1]; 30 μM, 4 hr incubation, 340 nm ~3 J/cm^2", "value": 0.8, "unit": "µM"},
      {"measurement": "S-59 post-UVA concentration", "setting": "[1]; 30 μM, 8 hr incubation, 340 nm ~3 J/cm^2", "value": 0.9, "unit": "µM"},
      {"measurement": "S-59 post-UVA concentration", "setting": "[1]; 30 μM, 8 hr, 340 nm ~3 J/cm^2 Top Only", "value": "<1", "unit": "µM"},
      {"measurement": "S-59 post-UVA concentration", "setting": "[1]; 30 μM, 8 hr, 340 nm ~3 J/cm^2 Top/Bottom", "value": "<1", "unit": "µM"},
      {"measurement": "S-59 post-UVA concentration", "setting": "[1]; 30 μM, 24 hr incubation, 340 nm ~3 J/cm^2", "value": 0.8, "unit": "µM"},
      {"measurement": "S-59 post-UVA concentration", "setting": "[1]; 30 μM, 24 hr, 340 nm ~3 J/cm^2 Top Only", "value": "<1", "unit": "µM"},
      {"measurement": "S-59 post-UVA concentration", "setting": "[1]; 30 μM, 24 hr, 340 nm ~3 J/cm^2 Top/Bottom", "value": "<1", "unit": "µM"},
      {"measurement": "S-59 post-UVA concentration", "setting": "[1]; 90 μM, 4 hr incubation, 340 nm ~3 J/cm^2", "value": 3.8, "unit": "µM"},
      {"measurement": "S-59 post-UVA concentration", "setting": "[1]; 90 μM, 8 hr incubation, 340 nm ~3 J/cm^2", "value": 0.9, "unit": "µM"},
      {"measurement": "S-59 post-UVA concentration", "setting": "[1]; 90 μM, 24 hr incubation, 340 nm ~3 J/cm^2", "value": 3.3, "unit": "µM"},
      {"measurement": "S-59 post-UVA concentration", "setting": "[1]; 150 μM, 0 hr incubation, 340 nm, more than twice ~3 J/cm^2", "value": 2.1, "unit": "µM"},
      {"measurement": "S-59 post-UVA concentration", "setting": "[1]; 150 μM, 0 hr, 340 nm Top Only", "value": 10.8, "unit": "µM"},
      {"measurement": "S-59 post-UVA concentration", "setting": "[1]; 150 μM, 0 hr, 340 nm Top/Bottom", "value": 7.7, "unit": "µM"},
      {"measurement": "Log Inact.", "setting": "[2]; 220 mL, 340 nm LED ~3.0 J/cm^2", "value": "2.28 log and 2.39 log"},
      {"measurement": "Post-Txt Titer", "setting": "[2]; 220 mL, 340 nm LED ~3.0 J/cm^2", "value": "4.32 log10 and 2.85 log10"},
      {"measurement": "Log Inact.", "setting": "[2]; 220 mL, INT 100 ~3.0 J/cm^2", "value": "2.02 log and 1.97 log"},
      {"measurement": "Post-Txt Titer", "setting": "[2]; 220 mL, INT 100 ~3.0 J/cm^2", "value": "4.58 log10 and 3.27 log10"},
      {"measurement": "Pre-Txt Titer", "setting": "[2]; 220 mL", "value": "6.60 log10 and 5.24 log10"},
      {"measurement": "Log Inact.", "setting": "[2]; 350 mL, 340 nm LED ~3.0 J/cm^2", "value": "2.34 log and 2.21 log"},
      {"measurement": "Post-Txt Titer", "setting": "[2]; 350 mL, 340 nm LED ~3.0 J/cm^2", "value": "4.26 log10 and 3.03 log10"},
      {"measurement": "Log Inact.", "setting": "[2]; 350 mL, INT 100 ~3.0 J/cm^2", "value": "1.76 log and 1.66 log"},
      {"measurement": "Post-Txt Titer", "setting": "[2]; 350 mL, INT 100 ~3.0 J/cm^2", "value": "4.93 log10 and 3.58 log10"},
      {"measurement": "Pre-Txt Titer", "setting": "[2]; 350 mL", "value": "6.60 log10 and 5.24 log10"},
      {"measurement": "Log inactivation", "setting": "[2]; 340 nm LED ~6.4 J/cm^2", "value": 4.6, "unit": "log"},
      {"measurement": "Post-treatment titer", "setting": "[2]; 340 nm LED ~6.4 J/cm^2", "value": 1.7, "unit": "log PFU"},
      {"measurement": "Pre-treatment titer", "setting": "[2]; 340 nm unit", "value": 6.3, "unit": "log PFU"},
      {"measurement": "Log inactivation", "setting": "[2]; 365 nm LED ~6.4 J/cm^2", "value": 3.0, "unit": "log"},
      {"measurement": "Post-treatment titer", "setting": "[2]; 365 nm LED ~6.4 J/cm^2", "value": 3.3, "unit": "log PFU"},
      {"measurement": "Pre-treatment titer", "setting": "[2]; 365 nm unit", "value": 6.3, "unit": "log PFU"},
      {"measurement": "Pre-treatment titer", "setting": "[2]; INT-100 unit", "value": 6.3, "unit": "log PFU"},
      {"measurement": "Log inactivation", "setting": "[2]; INT-100 ~6.4 J/cm^2", "value": 3.4, "unit": "log"},
      {"measurement": "Post-treatment titer", "setting": "[2]; INT-100 ~6.4 J/cm^2", "value": 2.9, "unit": "log PFU"},
      {"measurement": "Log reduction from S-59", "setting": "E. coli; 15 μM amotosalen, 265 nm", "value": 0, "unit": "log"},
      {"measurement": "Log reduction total", "setting": "E. coli; 15 μM amotosalen, 265 nm", "value": 4.52, "unit": "log"},
      {"measurement": "Log reduction from S-59", "setting": "E. coli; 15 μM amotosalen, 280 nm", "value": 0, "unit": "log"},
      {"measurement": "Log reduction total", "setting": "E. coli; 15 μM amotosalen, 280 nm", "value": 4.52, "unit": "log"},
      {"measurement": "Log reduction from S-59", "setting": "E. coli; 15 μM amotosalen, 310 nm", "value": 1.15, "unit": "log"},
      {"measurement": "Log reduction total", "setting": "E. coli; 15 μM amotosalen, 310 nm", "value": 4.52, "unit": "log"},
      {"measurement": "Log reduction from S-59", "setting": "E. coli; 15 μM amotosalen, 325 nm", "value": 3.81, "unit": "log"},
      {"measurement": "Log reduction total", "setting": "E. coli; 15 μM amotosalen, 325 nm", "value": 4.52, "unit": "log"},
      {"measurement": "Log reduction from S-59", "setting": "E. coli; 15 μM amotosalen, 340 nm", "value": 2.94, "unit": "log"},
      {"measurement": "Log reduction total", "setting": "E. coli; 15 μM amotosalen, 340 nm", "value": 4.52, "unit": "log"},
      {"measurement": "Log reduction from S-59", "setting": "E. coli; 15 μM amotosalen, 365 nm", "value": 2.76, "unit": "log"},
      {"measurement": "Log reduction total", "setting": "E. coli; 15 μM amotosalen, 365 nm", "value": 4.52, "unit": "log"},
      {"measurement": "Log reduction from S-59", "setting": "E. coli; 15 μM amotosalen, 385 nm", "value": 0.49, "unit": "log"},
      {"measurement": "Log reduction total", "setting": "E. coli; 15 μM amotosalen, 385 nm", "value": 1.5, "unit": "log"},
      {"measurement": "Log reduction from S-59", "setting": "E. coli; 150 μM amotosalen, 265 nm", "value": 0.54, "unit": "log"},
      {"measurement": "Log reduction total", "setting": "E. coli; 150 μM amotosalen, 265 nm", "value": 5.01, "unit": "log"},
      {"measurement": "Log reduction from S-59", "setting": "E. coli; 150 μM amotosalen, 280 nm", "value": 0.59, "unit": "log"},
      {"measurement": "Log reduction total", "setting": "E. coli; 150 μM amotosalen, 280 nm", "value": 5.38, "unit": "log"},
      {"measurement": "Log reduction from S-59", "setting": "E. coli; 150 μM amotosalen, 310 nm", "value": 2.29, "unit": "log"},
      {"measurement": "Log reduction total", "setting": "E. coli; 150 μM amotosalen, 310 nm", "value": 6.23, "unit": "log"},
      {"measurement": "Log reduction from S-59", "setting": "E. coli; 150 μM amotosalen, 325 nm", "value": 5.36, "unit": "log"},
      {"measurement": "Log reduction total", "setting": "E. coli; 150 μM amotosalen, 325 nm", "value": 5.70, "unit": "log"},
      {"measurement": "Log reduction from S-59", "setting": "E. coli; 150 μM amotosalen, 340 nm", "value": 4.93, "unit": "log"},
      {"measurement": "Log reduction total", "setting": "E. coli; 150 μM amotosalen, 340 nm", "value": 5.64, "unit": "log"},
      {"measurement": "Log reduction from S-59", "setting": "E. coli; 150 μM amotosalen, 365 nm", "value": 4.90, "unit": "log"}
    ]}
  ]
}
